Assay results from patent US6706740B2, “Fungicidal heterocyclic aromatic amides and their compositions, methods of use and preparation” (Dow AgroSciences LLC, priority 1999, dated 2004).

The compounds below were run on Phytophthora infestans (PHYTIN) (assay: microbe, parasite or virus in culture). Conditions: Phytophthora infestans, read-out: PHYTIN in vitro Growth Inhibition.
Type: cell-based

Row | SMILES | inhibition at 25 ppm [%]
1 | COc1ccccc1Oc1ccc(NC(=O)c2nccc(OC)c2O)cc1 [Compound 433] | < 80
2 | COc1ccnc(C(=O)Nc2ccccc2Oc2ccc(Cl)cc2)c1O [Compound 438] | < 80
3 | CCCCCCC(=O)Oc1c(OC)ccnc1C(=O)N[C@H]1COC(=O)[C@H](Cc2ccccc2)[C@@H](OC(=O)C(C)C)[C@H](C)OC1=O [Compound 613] | > 80
4 | COC(=O)C(COC(=O)CCc1ccccc1)NC(=O)c1nccc(OC)c1O (centres unmarked) [Compound 344] | < 80

Each compound was assayed on Mycosphaerella graminicola (Septoria tritici—SEPTTR) (assay: In vitro fungal growth inhibition, Mycosphaerella graminicola (SEPTTR)). Conditions: Zymoseptoria tritici; 25 ppm in growth medium; read-out: SEPTTR in vitro Growth Inhibition.
Type: cell-based

Row | SMILES | inhibition at 25 ppm [%]
5 | COc1ccccc1Oc1ccc(NC(=O)c2nccc(OC)c2O)cc1 [Compound 433] | > 80
6 | COc1ccnc(C(=O)Nc2ccccc2Oc2ccc(Cl)cc2)c1O [Compound 438] | > 80
7 | CCCCCCC(=O)Oc1c(OC)ccnc1C(=O)N[C@H]1COC(=O)[C@H](Cc2ccccc2)[C@@H](OC(=O)C(C)C)[C@H](C)OC1=O [Compound 613] | < 80
8 | COC(=O)C(COC(=O)CCc1ccccc1)NC(=O)c1nccc(OC)c1O (centres unmarked) [Compound 344] | < 80

The compounds below were run on Septoria tritici—SEPTTR (assay: Leaf Blotch of Wheat, in vivo whole plant, 24 Hour Protectant). Conditions: 100 ppm spray, wheat, 24 hour protectant, % control of fungal infection vs untreated plants.

Row | SMILES | SEPTTR in vivo 1 Day Protectant
9 | CCCCCCC(=O)Oc1c(OC)ccnc1C(=O)N[C@H]1COC(=O)[C@H](Cc2ccccc2)[C@@H](OC(=O)C(C)C)[C@H](C)OC1=O [Compound 613] | + +

Same assay, conditions: Zymoseptoria tritici, 24 h, 100 ppm spray, wheat, 24 hour protectant; control of fungal infection vs untreated plants; read-out: SEPTTR in vivo 1 Day Protectant

Row | SMILES | pest or weed control at 100 ppm [%]
10 | COc1ccccc1Oc1ccc(NC(=O)c2nccc(OC)c2O)cc1 [Compound 433] | < 25
11 | COc1ccnc(C(=O)Nc2ccccc2Oc2ccc(Cl)cc2)c1O [Compound 438] | < 25
12 | COC(=O)C(COC(=O)CCc1ccccc1)NC(=O)c1nccc(OC)c1O (centres unmarked) [Compound 344] | 25 to 74

What follows are compounds tested on Rhizoctonia solani (RHIZSO) (assay: microbe, parasite or virus in culture). Conditions: Rhizoctonia solani, read-out: RHIZSO in vitro Growth Inhibition.
Type: cell-based

Row | SMILES | inhibition at 25 ppm [%]
13 | COc1ccccc1Oc1ccc(NC(=O)c2nccc(OC)c2O)cc1 [Compound 433] | < 80
14 | COc1ccnc(C(=O)Nc2ccccc2Oc2ccc(Cl)cc2)c1O [Compound 438] | < 80
15 | CCCCCCC(=O)Oc1c(OC)ccnc1C(=O)N[C@H]1COC(=O)[C@H](Cc2ccccc2)[C@@H](OC(=O)C(C)C)[C@H](C)OC1=O [Compound 613] | < 80
16 | COC(=O)C(COC(=O)CCc1ccccc1)NC(=O)c1nccc(OC)c1O (centres unmarked) [Compound 344] | < 80

What follows are compounds tested on Magnaporthe grisea (Pyricularia oryzae—PYRIOR) (assay: microbe, parasite or virus in culture). Conditions: Pyricularia oryzae, read-out: PYRIOR in vitro Growth Inhibition.
Type: cell-based

Row | SMILES | inhibition at 25 ppm [%]
17 | COc1ccccc1Oc1ccc(NC(=O)c2nccc(OC)c2O)cc1 [Compound 433] | < 80
18 | COc1ccnc(C(=O)Nc2ccccc2Oc2ccc(Cl)cc2)c1O [Compound 438] | > 80
19 | CCCCCCC(=O)Oc1c(OC)ccnc1C(=O)N[C@H]1COC(=O)[C@H](Cc2ccccc2)[C@@H](OC(=O)C(C)C)[C@H](C)OC1=O [Compound 613] | < 80
20 | COC(=O)C(COC(=O)CCc1ccccc1)NC(=O)c1nccc(OC)c1O (centres unmarked) [Compound 344] | < 80

Each compound was assayed on Puccinia recondita—PUCCRT (assay: Brown Rust of Wheat, in vivo whole plant, 24 Hour Protectant). Conditions: 100 ppm spray, wheat, 24 hour protectant, % control of fungal infection vs untreated plants.

Row | SMILES | PUCCRT in vivo 1 Day Protectant
21 | CCCCCCC(=O)Oc1c(OC)ccnc1C(=O)N[C@H]1COC(=O)[C@H](Cc2ccccc2)[C@@H](OC(=O)C(C)C)[C@H](C)OC1=O [Compound 613] | + +

Same assay, conditions: Puccinia; 100 ppm spray, wheat, 24 hour protectant; control of fungal infection vs untreated plants; read-out: PUCCRT in vivo 1 Day Protectant

Row | SMILES | pest or weed control at 100 ppm [%]
22 | COc1ccccc1Oc1ccc(NC(=O)c2nccc(OC)c2O)cc1 [Compound 433] | < 25
23 | COc1ccnc(C(=O)Nc2ccccc2Oc2ccc(Cl)cc2)c1O [Compound 438] | < 25
24 | COC(=O)C(COC(=O)CCc1ccccc1)NC(=O)c1nccc(OC)c1O (centres unmarked) [Compound 344] | < 25

Each compound was assayed on Ustilago maydis (USTIMA) (assay: microbe, parasite or virus in culture). Conditions: Mycosarcoma maydis, read-out: USTIMA in vitro Growth Inhibition.
Type: cell-based

Row | SMILES | inhibition at 25 ppm [%]
25 | COc1ccccc1Oc1ccc(NC(=O)c2nccc(OC)c2O)cc1 [Compound 433] | < 80
26 | COc1ccnc(C(=O)Nc2ccccc2Oc2ccc(Cl)cc2)c1O [Compound 438] | < 80
27 | CCCCCCC(=O)Oc1c(OC)ccnc1C(=O)N[C@H]1COC(=O)[C@H](Cc2ccccc2)[C@@H](OC(=O)C(C)C)[C@H](C)OC1=O [Compound 613] | < 80
28 | COC(=O)C(COC(=O)CCc1ccccc1)NC(=O)c1nccc(OC)c1O (centres unmarked) [Compound 344] | < 80

Each compound was assayed on Stagonospora nodorum (Leptosphaeria nodorum—LEPTNO) (assay: In vitro fungal growth inhibition, Stagonospora nodorum (LEPTNO)). Conditions: Leptosphaeria; 25 ppm in growth medium; read-out: LEPTNO in vitro Growth Inhibition.
Type: cell-based

Row | SMILES | inhibition at 25 ppm [%]
29 | COc1ccccc1Oc1ccc(NC(=O)c2nccc(OC)c2O)cc1 [Compound 433] | < 80
30 | COc1ccnc(C(=O)Nc2ccccc2Oc2ccc(Cl)cc2)c1O [Compound 438] | > 80
31 | CCCCCCC(=O)Oc1c(OC)ccnc1C(=O)N[C@H]1COC(=O)[C@H](Cc2ccccc2)[C@@H](OC(=O)C(C)C)[C@H](C)OC1=O [Compound 613] | < 80
32 | COC(=O)C(COC(=O)CCc1ccccc1)NC(=O)c1nccc(OC)c1O (centres unmarked) [Compound 344] | > 80

The compounds below were run on Phytophthora infestans—PHYTIN (assay: whole plant or invertebrate). Conditions: Phytophthora, in Solanum lycopersicum, 24 h, read-out: PHYTIN in vivo 1 Day Protectant.
Type: in vivo

Row | SMILES | pest or weed control at 100 ppm [%]
33 | COc1ccccc1Oc1ccc(NC(=O)c2nccc(OC)c2O)cc1 [Compound 433] | < 25
34 | COc1ccnc(C(=O)Nc2ccccc2Oc2ccc(Cl)cc2)c1O [Compound 438] | < 25
35 | CCCCCCC(=O)Oc1c(OC)ccnc1C(=O)N[C@H]1COC(=O)[C@H](Cc2ccccc2)[C@@H](OC(=O)C(C)C)[C@H](C)OC1=O [Compound 613] | 25 to 74
36 | COC(=O)C(COC(=O)CCc1ccccc1)NC(=O)c1nccc(OC)c1O (centres unmarked) [Compound 344] | < 25

What follows are compounds tested on Erysiphe graminis—ERYSGT (assay: Powdery Mildew of Wheat, in vivo whole plant, 24 Hour Protectant). Conditions: 100 ppm spray, wheat, 24 hour protectant, % control of fungal infection vs untreated plants.

Row | SMILES | ERYSGT in vivo 1 Day Protectant
37 | CCCCCCC(=O)Oc1c(OC)ccnc1C(=O)N[C@H]1COC(=O)[C@H](Cc2ccccc2)[C@@H](OC(=O)C(C)C)[C@H](C)OC1=O [Compound 613] | + +

Same assay, conditions: Erysiphe; 100 ppm spray, wheat, 24 hour protectant; control of fungal infection vs untreated plants; read-out: ERYSGT in vivo 1 Day Protectant

Row | SMILES | pest or weed control at 100 ppm [%]
38 | COc1ccccc1Oc1ccc(NC(=O)c2nccc(OC)c2O)cc1 [Compound 433] | < 25
39 | COc1ccnc(C(=O)Nc2ccccc2Oc2ccc(Cl)cc2)c1O [Compound 438] | < 25
40 | COC(=O)C(COC(=O)CCc1ccccc1)NC(=O)c1nccc(OC)c1O (centres unmarked) [Compound 344] | < 25

The compounds below were run on Leptosphaeria nodorum—LEPTNO (assay: Glume Blotch of Wheat, in vivo whole plant, 24 Hour Protectant). Conditions: Leptosphaeria; 100 ppm spray, wheat, 24 hour protectant, % control of fungal infection vs untreated plants; read-out: LEPTNO in vivo 1 Day Protectant.

Row | SMILES | pest or weed control at 100 ppm [%]
41 | CCCCCCC(=O)Oc1c(OC)ccnc1C(=O)N[C@H]1COC(=O)[C@H](Cc2ccccc2)[C@@H](OC(=O)C(C)C)[C@H](C)OC1=O [Compound 613] | 25 to 74

Same assay, conditions: Leptosphaeria; 100 ppm spray, wheat, 24 hour protectant; control of fungal infection vs untreated plants; read-out: LEPTNO in vivo 1 Day Protectant

Row | SMILES | pest or weed control at 100 ppm [%]
42 | COc1ccccc1Oc1ccc(NC(=O)c2nccc(OC)c2O)cc1 [Compound 433] | < 25
43 | COc1ccnc(C(=O)Nc2ccccc2Oc2ccc(Cl)cc2)c1O [Compound 438] | < 25
44 | COC(=O)C(COC(=O)CCc1ccccc1)NC(=O)c1nccc(OC)c1O (centres unmarked) [Compound 344] | 25 to 74
